Data reported in PubChem BioAssay AID1963848 (Molecular Pharmacology Branch, DTP, NCI, 2024).

System: 379773-124-R-J2-PDC spheroid viability
Test: Anticancer human tumor 379773-124-R-J2-PDC patient-derived endometrial carcinoma cell line growth inhibition [POLQ]
Settings: spheroids with HUVEC and MSC; for IC50: curve of first compound; for viability, T/C: stronger effect = lower value
In short: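 PDC + HUVEC + MSC complex spheroids; POLQ inhibitors ± partner drugs; top conc. at/near clinical Cmax, else 10 microM (SN-38 1 microM), half-log dilutions; 37 degrees C, 5% CO2.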
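Also: spheroids exposed to drugs for seven days before readout.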
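For viability, T/C in this document: percent viability relative to DMSO vehicle control taken as 100%.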

Compound: CC(=O)O[C@H]1C(=O)[C@@]2(C)[C@H]([C@H](OC(=O)c3ccccc3)[C@]3(O)C[C@H](OC(=O)[C@H](O)[C@@H](NC(=O)c4ccccc4)c4ccccc4)C(C)=C1C3(C)C)[C@]1(OC(C)=O)CO[C@@H]1C[C@@H]2O + Cc1cccc(N(C)C(=O)C2C(O)CCN2c2nc(C)cc(C(F)(F)F)c2C#N)c1
- IC50 (second compound 0.0316 µM): < 9.49 nM
- IC50 (second compound 0.1 µM): < 9.49 nM
- IC50 (second compound 0.316 µM): < 9.49 nM
- IC50 (second compound 1 µM): < 9.49 nM
- IC50 (second compound 3.16 µM): < 9.49 nM
- IC50 (second compound 10 µM): < 9.49 nM
- viability, T/C (second compound 0.0316 µM, first compound 0.00949 µM): 24.4%
- viability, T/C (second compound 0.0316 µM, first compound 0.03 µM): 11.6%
- viability, T/C (second compound 0.0316 µM, first compound 0.0949 µM): 7.9%
- viability, T/C (second compound 0.0316 µM, first compound 0.3 µM): 12.8%
- viability, T/C (second compound 0.0316 µM, first compound 0.949 µM): 13.3%
- viability, T/C (second compound 0.0316 µM, first compound 3 µM): 10.6%
- viability, T/C (second compound 0.1 µM, first compound 0.00949 µM): 25.5%
- viability, T/C (second compound 0.1 µM, first compound 0.03 µM): 8.1%
- viability, T/C (second compound 0.1 µM, first compound 0.0949 µM): 9.59%
- viability, T/C (second compound 0.1 µM, first compound 0.3 µM): 9.63%
- viability, T/C (second compound 0.1 µM, first compound 0.949 µM): 10.5%
- viability, T/C (second compound 0.1 µM, first compound 3 µM): 7.41%
- viability, T/C (second compound 0.316 µM, first compound 0.00949 µM): 27.3%
- viability, T/C (second compound 0.316 µM, first compound 0.03 µM): 9.48%
- viability, T/C (second compound 0.316 µM, first compound 0.0949 µM): 11.7%
- viability, T/C (second compound 0.316 µM, first compound 0.3 µM): 9.83%
- viability, T/C (second compound 0.316 µM, first compound 0.949 µM): 10.2%
- viability, T/C (second compound 0.316 µM, first compound 3 µM): 9.11%
- viability, T/C (second compound 1 µM, first compound 0.00949 µM): 23.7%
- viability, T/C (second compound 1 µM, first compound 0.03 µM): 13.9%
- viability, T/C (second compound 1 µM, first compound 0.0949 µM): 11.9%
- viability, T/C (second compound 1 µM, first compound 0.3 µM): 10.7%
- viability, T/C (second compound 1 µM, first compound 0.949 µM): 10.9%
- viability, T/C (second compound 1 µM, first compound 3 µM): 7.53%
- viability, T/C (second compound 3.16 µM, first compound 0.00949 µM): 15.8%
- viability, T/C (second compound 3.16 µM, first compound 0.03 µM): 8.23%
- viability, T/C (second compound 3.16 µM, first compound 0.0949 µM): 10.8%
- viability, T/C (second compound 3.16 µM, first compound 0.3 µM): 11.8%
- viability, T/C (second compound 3.16 µM, first compound 0.949 µM): 10.8%
- viability, T/C (second compound 3.16 µM, first compound 3 µM): 12%
- viability, T/C (second compound 10 µM, first compound 0.00949 µM): 16.4%
- viability, T/C (second compound 10 µM, first compound 0.03 µM): 10.1%
- viability, T/C (second compound 10 µM, first compound 0.0949 µM): 9.57%
- viability, T/C (second compound 10 µM, first compound 0.3 µM): 10.7%
- viability, T/C (second compound 10 µM, first compound 0.949 µM): 10.5%
- viability, T/C (second compound 10 µM, first compound 3 µM): 7.56%

Compound: COc1cccc(OCCCN)c1-c1cc(Nc2cnc(C#N)cn2)n[nH]1 + COC1C(OC(N)=O)C(O)C(Oc2ccc3c(O)c(NC(=O)c4ccc(O)c(CC=C(C)C)c4)c(=O)oc3c2C)OC1(C)C
- IC50 (second compound 0.0316 µM): 4.43 nM
- IC50 (second compound 0.1 µM): 3.53 nM
- IC50 (second compound 0.316 µM): 3.5 nM
- IC50 (second compound 1 µM): 4.46 nM
- IC50 (second compound 3.16 µM): 3.76 nM
- IC50 (second compound 10 µM): 3.81 nM
- viability, T/C (second compound 0.0316 µM, first compound 0.00316 µM): 69.1%
- viability, T/C (second compound 0.0316 µM, first compound 0.01 µM): 3.94%
- viability, T/C (second compound 0.0316 µM, first compound 0.0316 µM): 2.78%
- viability, T/C (second compound 0.0316 µM, first compound 0.1 µM): 2%
- viability, T/C (second compound 0.0316 µM, first compound 0.316 µM): 1.77%
- viability, T/C (second compound 0.0316 µM, first compound 1 µM): 1.34%
- viability, T/C (second compound 0.1 µM, first compound 0.00316 µM): 54.7%
- viability, T/C (second compound 0.1 µM, first compound 0.01 µM): 5.02%
- viability, T/C (second compound 0.1 µM, first compound 0.0316 µM): 2.47%
- viability, T/C (second compound 0.1 µM, first compound 0.1 µM): 1.87%
- viability, T/C (second compound 0.1 µM, first compound 0.316 µM): 2.26%
- viability, T/C (second compound 0.1 µM, first compound 1 µM): 1.32%
- viability, T/C (second compound 0.316 µM, first compound 0.00316 µM): 54.3%
- viability, T/C (second compound 0.316 µM, first compound 0.01 µM): 4.98%
- viability, T/C (second compound 0.316 µM, first compound 0.0316 µM): 2.58%
- viability, T/C (second compound 0.316 µM, first compound 0.1 µM): 1.9%
- viability, T/C (second compound 0.316 µM, first compound 0.316 µM): 1.7%
- viability, T/C (second compound 0.316 µM, first compound 1 µM): 0.97%
- viability, T/C (second compound 1 µM, first compound 0.00316 µM): 69.2%
- viability, T/C (second compound 1 µM, first compound 0.01 µM): 5.09%
- viability, T/C (second compound 1 µM, first compound 0.0316 µM): 1.91%
- viability, T/C (second compound 1 µM, first compound 0.1 µM): 2%
- viability, T/C (second compound 1 µM, first compound 0.316 µM): 1.74%
- viability, T/C (second compound 1 µM, first compound 1 µM): 1.47%
- viability, T/C (second compound 3.16 µM, first compound 0.00316 µM): 57.9%
- viability, T/C (second compound 3.16 µM, first compound 0.01 µM): 5.31%
- viability, T/C (second compound 3.16 µM, first compound 0.0316 µM): 2.5%
- viability, T/C (second compound 3.16 µM, first compound 0.1 µM): 2.18%
- viability, T/C (second compound 3.16 µM, first compound 0.316 µM): 1.81%
- viability, T/C (second compound 3.16 µM, first compound 1 µM): 1.54%
- viability, T/C (second compound 10 µM, first compound 0.00316 µM): 58.8%
- viability, T/C (second compound 10 µM, first compound 0.01 µM): 4.41%
- viability, T/C (second compound 10 µM, first compound 0.0316 µM): 2.84%
- viability, T/C (second compound 10 µM, first compound 0.1 µM): 2.3%
- viability, T/C (second compound 10 µM, first compound 0.316 µM): 3.07%
- viability, T/C (second compound 10 µM, first compound 1 µM): 1.39%
